Assay results published in PubChem BioAssay (NCI).
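Each compound was tested at five concentrations against cells in 96-well plates for 48 hours. Here, GI50 denotes the concentration required for 50% inhibition of growth. At the TGI there is no net growth.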

Key:
Experiment in all cases: inhibition of tumour cell growth, NCI panel, 48 h; in the data active = GI50 below about 0.43 µM; inactive = the rest
786-0 renal = tested on: 786-0 renal
A498 renal = tested on: A498 renal
A549 NSCLC = tested on: A549 NSCLC
ACHN renal = tested on: ACHN renal
BT-549 breast = tested on: BT-549 breast
CCRF-CEM leukemia = tested on: CCRF-CEM leukemia
COLO 205 colon = tested on: COLO 205 colon
EKVX NSCLC = tested on: EKVX NSCLC
HCC-2998 colon = tested on: HCC-2998 colon
HCT-116 colon = tested on: HCT-116 colon
HCT-15 colon = tested on: HCT-15 colon
HL-60(TB) leukemia = tested on: HL-60(TB) leukemia
HOP-62 NSCLC = tested on: HOP-62 NSCLC
HOP-92 NSCLC = tested on: HOP-92 NSCLC
HS 578T breast = tested on: HS 578T breast
HT29 colon = tested on: HT29 colon
K-562 leukemia = tested on: K-562 leukemia
KM12 colon = tested on: KM12 colon
LOX IMVI melanoma = tested on: LOX IMVI melanoma
M14 melanoma = tested on: M14 melanoma
MALME-3M melanoma = tested on: MALME-3M melanoma
MCF7 breast = tested on: MCF7 breast
MDA-MB-231 breast = tested on: MDA-MB-231 breast
MDA-MB-435 = tested on: MDA-MB-435
NCI-H226 lung = tested on: NCI-H226 lung
NCI-H23 lung = tested on: NCI-H23 lung
NCI-H522 lung = tested on: NCI-H522 lung
NCI/ADR-RES ovarian = tested on: NCI/ADR-RES ovarian
OVCAR-3 ovarian = tested on: OVCAR-3 ovarian
OVCAR-4 ovarian = tested on: OVCAR-4 ovarian
OVCAR-5 ovarian = tested on: OVCAR-5 ovarian
OVCAR-8 ovarian = tested on: OVCAR-8 ovarian
PC-3 prostate = tested on: PC-3 prostate
RPMI-8226 leukemia = tested on: RPMI-8226 leukemia
RXF 393 renal = tested on: RXF 393 renal
SF-268 CNS = tested on: SF-268 CNS
SF-295 CNS = tested on: SF-295 CNS
SF-539 CNS = tested on: SF-539 CNS
SK-MEL-2 melanoma = tested on: SK-MEL-2 melanoma
SK-MEL-28 melanoma = tested on: SK-MEL-28 melanoma
SK-MEL-5 melanoma = tested on: SK-MEL-5 melanoma
SK-OV-3 ovarian = tested on: SK-OV-3 ovarian
SN12C renal = tested on: SN12C renal
SNB-19 CNS = tested on: SNB-19 CNS
SNB-75 CNS = tested on: SNB-75 CNS
SR leukemia = tested on: SR leukemia
T-47D breast = tested on: T-47D breast
TK-10 renal = tested on: TK-10 renal
U251 CNS = tested on: U251 CNS
UACC-257 melanoma = tested on: UACC-257 melanoma
UACC-62 melanoma = tested on: UACC-62 melanoma
UO-31 renal = tested on: UO-31 renal

CC(C)[C@]12O[C@H]1[C@@H]1O[C@]13[C@]1(O[C@H]1C[C@H]1C4=C(CC[C@@]13C)C(=O)OC4)[C@@H]2OC(=O)CN(C)C
0.367 µM: TGI (SF-268 CNS)
0.0373 µM: TGI (M14 melanoma)
0.0396 µM: TGI (SK-MEL-5 melanoma)
0.0724 µM: TGI (UACC-62 melanoma)
0.0732 µM: TGI (SK-MEL-2 melanoma)
0.332 µM: TGI (SF-539 CNS)
0.0633 µM: TGI (OVCAR-3 ovarian)
active: GI50 (786-0 renal) 0.0326 µM | GI50 (A498 renal) 0.0161 µM | GI50 (A549 NSCLC) 0.0587 µM | GI50 (ACHN renal) 0.021 µM | GI50 (BT-549 breast) 0.0184 µM | GI50 (CCRF-CEM leukemia) 0.0315 µM | GI50 (COLO 205 colon) 0.017 µM | GI50 (EKVX NSCLC) 0.11 µM | GI50 (HCC-2998 colon) 0.0102 µM | GI50 (HCT-116 colon) 0.0128 µM | GI50 (HCT-15 colon) 0.0291 µM | GI50 (HL-60(TB) leukemia) 0.0153 µM | GI50 (HOP-62 NSCLC) 0.0314 µM | GI50 (HOP-92 NSCLC) 0.0383 µM | GI50 (HS 578T breast) 0.0227 µM | GI50 (HT29 colon) 0.0179 µM | GI50 (K-562 leukemia) 0.0283 µM | GI50 (KM12 colon) 0.208 µM | GI50 (LOX IMVI melanoma) 0.0101 µM | GI50 (M14 melanoma) 0.017 µM | GI50 (MALME-3M melanoma) 0.0193 µM | GI50 (MCF7 breast) 0.022 µM | GI50 (MDA-MB-231 breast) 0.0578 µM | GI50 (MDA-MB-435) 0.0176 µM | GI50 (NCI-H226 lung) 0.0191 µM | GI50 (NCI-H23 lung) 0.0116 µM | GI50 (NCI-H522 lung) 0.0216 µM | GI50 (NCI/ADR-RES ovarian) 0.0481 µM | GI50 (OVCAR-3 ovarian) 0.0208 µM | GI50 (OVCAR-4 ovarian) 0.0326 µM | GI50 (OVCAR-5 ovarian) 0.0491 µM | GI50 (OVCAR-8 ovarian) 0.0336 µM | GI50 (PC-3 prostate) 0.0218 µM | GI50 (RPMI-8226 leukemia) 0.0181 µM | GI50 (RXF 393 renal) 0.0157 µM | GI50 (SF-268 CNS) 0.037 µM | GI50 (SF-295 CNS) 0.0777 µM | GI50 (SF-539 CNS) 0.0411 µM | GI50 (SK-MEL-2 melanoma) 0.0267 µM | GI50 (SK-MEL-28 melanoma) 0.0207 µM | GI50 (SK-MEL-5 melanoma) 0.0152 µM | GI50 (SK-OV-3 ovarian) 0.0485 µM | GI50 (SN12C renal) 0.0309 µM | GI50 (SNB-19 CNS) 0.286 µM | GI50 (SNB-75 CNS) 0.0286 µM | GI50 (SR leukemia) 0.0143 µM | GI50 (T-47D breast) 0.034 µM | GI50 (TK-10 renal) 0.048 µM | GI50 (U251 CNS) 0.0488 µM | GI50 (UACC-257 melanoma) 0.0175 µM | GI50 (UACC-62 melanoma) 0.0228 µM | GI50 (UO-31 renal) 0.0146 µM
2.64 µM: TGI (KM12 colon)
0.141 µM: TGI (SNB-75 CNS)
0.178 µM: TGI (NCI-H226 lung)
0.0424 µM: TGI (COLO 205 colon)
0.189 µM: TGI (SR leukemia)
0.118 µM: TGI (HL-60(TB) leukemia)
0.044 µM: TGI (HCC-2998 colon)
0.0748 µM: TGI (MDA-MB-435)
0.0483 µM: TGI (A498 renal)
0.0733 µM: TGI (MALME-3M melanoma)
0.0889 µM: TGI (HS 578T breast)
0.0336 µM: TGI (RXF 393 renal)
> 46.2 µM: TGI (OVCAR-4 ovarian)
0.0563 µM: TGI (UACC-257 melanoma)
0.0615 µM: TGI (SK-MEL-28 melanoma)
0.11 µM: TGI (NCI-H522 lung)
> 100 µM: TGI (786-0 renal) | TGI (ACHN renal) | TGI (EKVX NSCLC) | TGI (HCT-116 colon) | TGI (HCT-15 colon) | TGI (HT29 colon) | TGI (K-562 leukemia) | TGI (LOX IMVI melanoma) | TGI (MCF7 breast) | TGI (MDA-MB-231 breast) | TGI (NCI/ADR-RES ovarian) | TGI (OVCAR-5 ovarian) | TGI (OVCAR-8 ovarian) | TGI (PC-3 prostate) | TGI (RPMI-8226 leukemia) | TGI (SF-295 CNS) | TGI (SK-OV-3 ovarian) | TGI (SN12C renal) | TGI (SNB-19 CNS) | TGI (T-47D breast) | TGI (TK-10 renal) | TGI (U251 CNS) | TGI (UO-31 renal)
0.0564 µM: TGI (BT-549 breast)
